Laboratory results: US9550752B2, “Triazolinthione derivatives” (priority 2013, dated 2017)
Marks after values point to notes of the source that are not given here.

settings: method [a]: pH 2.7, 0.1% formic acid in water/acetonitrile; Table 1, formula (I)

Compound	LogP
OC(Cc1ccc2ccccc2n1)(Cn1ncnc1S)C1(Cl)CC1 (stereo not drawn) [Example I-7]	1.60^[a]
OC(Cc1cc(Cl)nc(Cl)c1)(Cn1ncnc1S)C1(Cl)CC1 (stereo not drawn) [Example I-8]	3.10^[a]

same assay, conditions: pH 2.7

Compound	LogP
CC(CF)(CF)C(O)(Cc1ccnc(Cl)c1)Cn1cncn1 (racemic) [XXI-41]	1.66^[a]
OC(Cc1cccc(Cl)c1)(Cc1ccnc(Cl)c1)Cn1cncn1 (racemic) [XXI-42]	2.42^[a]
OC(Cc1ccnc(Cl)c1)(Cn1cncn1)c1ccc(Cl)nc1 (racemic) [XXI-43]	1.38^[a]
OC(Cc1ccnc(Cl)c1)(Cn1cncn1)C1(Cl)CC1 (racemic) [XXI-44]	1.76^[a]
OC(Cc1cc(Cl)ncc1F)(Cn1cncn1)C1(Cl)CC1 (racemic) [XXI-45]	2.06^[a]
OC(Cc1cc(Cl)ncc1F)(Cn1cncn1)C1(F)CC1 (racemic) [XXI-46]	1.66^[a]
OC(Cc1cc(Cl)ncc1F)(Cn1cncn1)c1ccc(Cl)nc1 (racemic) [XXI-47]	1.60^[a]
OC(Cc1cc(Cl)ncc1F)(Cn1cncn1)c1cccnc1Cl (racemic) [XXI-48]	1.57^[a]
CC(CF)(CF)C(O)(Cc1cc(Cl)ncc1F)Cn1cncn1 (racemic) [XXI-49]	1.89^[a]
OC(Cc1ccnnc1Cl)(Cn1cncn1)C1(Cl)CC1 (racemic) [XXI-50]	1.31^[a]
OC(Cc1cc(Cl)nnc1Cl)(Cn1cncn1)C1(Cl)CC1 (racemic) [XXI-51]	1.92^[a]
OC(Cc1cc(Cl)ccn1)(Cn1cncn1)C1(Cl)CC1 (racemic) [XXI-52]	2.02^[a]
Cc1cccc(CC(O)(Cn2cncn2)C2(Cl)CC2)n1 (racemic) [XXI-53]	0.52^[a]
CC1(C(O)(Cc2ccncc2Cl)Cn2cncn2)CC1 (racemic) [XXI-54]	1.57^[a]
OC(Cc1ccncn1)(Cn1cncn1)C1(Cl)CC1 (racemic) [XXI-55]	1.10^[a]
OC(Cc1cccnc1F)(Cn1cncn1)C1(Cl)CC1 (racemic) [XXI-56]	1.64^[a]
Cc1ccnc(CC(O)(Cn2cncn2)C2(Cl)CC2)c1 (racemic) [XXI-57]	0.52^[a]
OC(Cc1ccc(Cl)nc1Cl)(Cn1cncn1)C1(Cl)CC1 (racemic) [XXI-58]	2.55^[a]
OC(Cc1nccnc1I)(Cn1cncn1)C1(Cl)CC1 (racemic) [XXI-59]	2.07^[a]
OC(Cc1cc(Oc2ccc(Cl)cc2)nnc1Cl)(Cn1cncn1)C1(Cl)CC1 (racemic) [XXI-60]	3.08^[a]
OC(Cc1cncc(Oc2ccc(Cl)cc2)n1)(Cn1cncn1)C1(Cl)CC1 (racemic) [XXI-61]	2.88^[a]

Compound	LogP
OC(Cc1ncnc(Cl)c1Cl)(Cn1cncn1)C1(Cl)CC1 (racemic) [XXI-62]	2.28^[a]
OC(Cc1cc(Cl)ncc1Cl)(Cn1cncn1)C1(Cl)CC1 (racemic) [XXI-63]	2.53^[a]
OC(Cc1ccnc(Cl)c1F)(Cn1cncn1)c1cccnc1Cl (racemic) [XXI-64]	1.54^[a]
OC(Cc1ccnc(Cl)c1F)(Cn1cncn1)C1(Cl)CC1 (racemic) [XXI-65]	2.02^[a]
CC(CF)(CF)C(O)(Cc1ccnc(Cl)c1F)Cn1cncn1 (racemic) [XXI-66]	1.87^[a]
OC(Cc1nc(Cl)ccc1Cl)(Cn1cncn1)C1(Cl)CC1 (racemic) [XXI-101]	2.73^[a]
OC(Cc1ncc(Cl)cc1Cl)(Cn1cncn1)C1(Cl)CC1 (racemic) [XXI-102]	2.88^[a]
CC(C)(C)C(O)(Cc1ccncc1F)Cn1cncn1 (racemic) [XXI-103]	1.41^[a]
CCC(C)(C)C(O)(Cc1ccncc1F)Cn1cncn1 (racemic) [XXI-104]	1.73^[a]
CC(C)(C)C(O)(Cc1ccc2ccccc2n1)Cn1cncn1 (racemic) [XXI-105]	1.51^[a]
CC(C)(C)C(O)(Cc1cc(Cl)nc(Cl)c1)Cn1cncn1 (racemic) [XXI-106]	2.64^[a]
CC(C)(C)C(O)(Cc1ccnc2ccccc12)Cn1cncn1 (racemic) [XXI-107]	1.17^[a]
CC(C)(C)C(O)(Cc1cc(Cl)cc(Cl)n1)Cn1cncn1 (racemic) [XXI-108]	2.86^[a]
CC(C)(C)C(O)(Cc1ccc(Cl)c(Cl)n1)Cn1cncn1 (racemic) [XXI-109]	2.78^[a]
CC(C)(C)C(O)(Cc1cccc(Cl)n1)Cn1cncn1 (racemic) [XXI-110]	2.30^[a]
CCC(C)(C)C(O)(Cc1ccnc(Cl)c1)Cn1cncn1 (racemic) [XXI-111]	2.27^[a]
CC(C)(C)C(O)(Cc1ccnc(Cl)c1)Cn1cncn1 (racemic) [XXI-112]	1.93^[a]
CC(C)(C)C(O)(Cc1cc(Cl)ncc1F)Cn1cncn1 (racemic) [XXI-113]	2.16^[a]
CC(C)(C)C(O)(Cc1nccnc1Cl)Cn1cncn1 (racemic) [XXI-115]	2.01^[a]
Cc1ncc(CC(O)(Cn2cncn2)C(C)(C)C)nc1Cl (racemic) [XXI-116]	2.10^[a]
CC(C)(C)C(O)(Cc1cnccn1)Cn1cncn1 (racemic) [XXI-118]	1.39^[a]

Compound	LogP
CC(C)(C)C(O)(Cc1cc(Cl)ccn1)Cn1cncn1 (racemic) [XXI-119]	1.87^[a]
Cc1cccc(CC(O)(Cn2cncn2)C(C)(C)C)n1 (racemic) [XXI-120]	0.63^[a]
CCOC(=O)OC(Cc1cccnc1Cl)(Cn1cncn1)C(C)(C)C (racemic) [XXI-121]	2.67^[a]
COC(C)(C)C(O)(Cc1ccncc1Cl)Cn1cncn1 (racemic) [XXI-123]	1.48^[a]
CC(C)(C)C(O)(Cc1ccnc(Cl)c1F)Cn1cncn1 (racemic) [XXI-124]	2.16^[a]
CC(C)(C)C(O)(Cc1c(Cl)cncc1Cl)Cn1cncn1 (racemic) [XXI-125]	2.34^[a]
CC(C)(C)C(O)(Cc1cc(F)ncc1Cl)Cn1cncn1 (racemic) [XXI-126]	2.39^[a]
OC(Cc1ccncc1Cl)(CC1CC1)Cn1cncn1 (racemic) [XXI-127]	1.43^[a]
CC(C)CCC(O)(Cc1ccncc1Cl)Cn1cncn1 (racemic) [XXI-128]	2.00^[a]
CCOC(C)(C)C(O)(Cc1ccncc1Cl)Cn1cncn1 (racemic) [XXI-129]	1.90^[a]
CC(C)(C)C(O)(Cc1nc(Cl)ccc1Cl)Cn1cncn1 (racemic) [XXI-130]	2.82^[a]
CC(C)(C)C(O)(Cc1cccnc1Cl)Cn1ncnc1S (stereo not drawn) [Example I-1]	2.31^[a]
CC(C)(C)C(O)(Cc1ccncc1Cl)Cn1ncnc1S (stereo not drawn) [Example I-2]	2.14^[a]
OC(Cc1cccnc1Cl)(Cn1ncnc1S)C1(Cl)CC1 (stereo not drawn) [Example I-4]	2.15^[a]
CC(C)(C)C(O)(Cc1cnc2ccccc2c1)Cn1ncnc1S (stereo not drawn) [Example I-5]	1.58^[a]
CCCCc1nc2ccccc2cc1CC(O)(Cn1ncnc1S)C(C)(C)C (stereo not drawn) [Example I-6]	1.88^[a]
CC(C)(C)C(O)(Cc1ccnc2ccccc12)Cn1ncnc1S (stereo not drawn) [Example I-9]	1.59^[a]
CC(C)(C)C(O)(Cc1cc(Cl)cc(Cl)n1)Cn1ncnc1S (stereo not drawn) [Example I-10]	3.07^[a]
OC(Cc1ccnc2ccccc12)(Cn1ncnc1S)C1(Cl)CC1 (stereo not drawn) [Example I-12]	1.37^[a]
CC(C)(C)C(O)(Cc1ccc(Cl)c(Cl)n1)Cn1ncnc1S (stereo not drawn) [Example I-14]	3.00^[a]

same assay, conditions: pH 7.8

Compound	LogP
CCOC(=O)OC(Cc1cccnc1Cl)(Cn1cncn1)C(C)(C)C (racemic) [XXI-121]	2.56^[b];
CCOC(C)(C)C(O)(Cc1ccncc1Cl)Cn1cncn1 (racemic) [XXI-129]	2.04^[b];
